Measured values reported in publication PMC5967881 (Journal of medicinal chemistry, 2017).
Where two headings read alike, the source gives them in different places.

How the values were obtained:
[1] = test system: A/California/07/2009 (H1N1) virus; assay: microbe, parasite or virus in culture; type: cell-based, influenza A virus; settings: for activity at 10 µM: read-out: % plaque formation at 10 μM drug concentration against A/California/07/2009 (H1N1); for EC50: read-out: EC50 against A/California/07/2009 (H1N1)
[2] = biological target: wild-type AM2 channel (AM2-WT) (Influenza A virus, UniProt P0DOF5); assay: biochemical; settings: pH 5.5, read-out: Electrophysiological TEVC assay (% WT channel inhibition), 100 μM, two-minute time point, pH 5.5, Xenopus laevis oocytes
wild-type AM2 channel (AM2-WT), sequence (P0DOF5 whole entry): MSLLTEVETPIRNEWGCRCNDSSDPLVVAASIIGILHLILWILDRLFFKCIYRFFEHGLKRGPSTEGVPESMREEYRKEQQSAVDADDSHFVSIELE

Compound	activity at 10 µM ([1]; Influenza A virus, H1N1, MDCK) [%]	% plaque formation at 10 μM drug concentration against A/California/07/2009 (H1N1) [1] [%]	inhibition at 100 µM [2] [%]	EC50 ([1]; Influenza A virus, H1N1, MDCK) [µM]	EC50 [1] [µM]
OC12CC3CC(C1)CC(NCc1cc(-c4cc(Cl)sc4Cl)on1)(C3)C2 [9v, 3-({[5-(2,5-dichlorothiophen-3-yl)-1,2-oxazol-3-yl]methyl}amino)adamantan-1-ol]	< 20				
N-((5-(2-(methylsulfonyl)phenyl)isoxazol-3-yl)methyl)adamantan-1-amine [9m]		57.1 ± 2.4			
Oc1ccccc1-c1cc(CNC23CC4CC(CC(C4)C2)C3)no1 [9h, 2-(3-(((adamantan-1-yl)amino)methyl)isoxazol-5-yl)phenol]	< 20		≤ 30	0.1 to 1.2	
Clc1cc(-c2cc(CNC34CC5CC(CC(C5)C3)C4)no2)cs1 [9r, N-((5-(5-chlorothiophen-3-yl)isoxazol-3-yl)methyl)adamantan-1-amine]	< 20				
COc1sccc1-c1cc(CNC23CC4CC(CC(C4)C2)C3)no1 [9t, N-((5-(2-methoxythiophen-3-yl)isoxazol-3-yl)methyl)adamantan-1-amine]	< 20		≤ 30		
OC12CC3CC(C1)CC(NCc1cc(-c4ccccc4Cl)on1)(C3)C2 [9d, 3-({[5-(2-chlorophenyl)-1,2-oxazol-3-yl]methyl}amino)adamantan-1-ol]	< 20		≤ 30	0.1 to 1.2	
Clc1ccc(-c2cc(CNC34CC5CC(CC(C5)C3)C4)no2)s1 [9q, N-((5-(5-chlorothiophen-2-yl)isoxazol-3-yl)methyl)adamantan-1-amine]	< 20	0			0.1 ± 0.03
CSc1ccccc1-c1cc(CNC23CC4CC(CC(O)(C4)C2)C3)no1 [9f, 3-[({5-[2-(methylsulfanyl)phenyl]-1,2-oxazol-3-yl}methyl)amino]adamantan-1-ol]	< 20		≤ 30	0.1 to 1.2	
Clc1cc(-c2cc(CNC34CC5CC(CC(C5)C3)C4)no2)c(Cl)s1 [9u, N-((5-(2,5-dichlorothiophen-3-yl)isoxazol-3-yl)methyl)adamantan-1-amine]	< 20				
c1ccc(-c2cc(CNC34CC5CC(CC(C5)C3)C4)no2)cc1 [9a, N-[(5-phenyl-1,2-oxazol-3-yl)methyl]adamantan-1-amine]	< 20		≤ 30	0.1 to 1.2	
